Reference: US20080009546A1 (Chevron U.S.A. Inc., priority 2005, published 2008)
Like-named read-outs stand apart in the source and are kept apart here.

Key:
[1] = test system: primary neurons from rat cerebral cortex; test: NMDA-induced LDH release assay in primary cortical neurons (neuroprotection); format: cell-based; conditions: for EC50: two experiments, 300 uM NMDA + 50 μM glycine 15 minutes, LDH after 24 hours, read-out: average EC50 (±SD), NMDA-induced LDH release
Protocol: The neuroprotective properties of drugs have been studied in vitro, using neurons cultured from cortex, cerebellum or retina. […] Neurotoxicity is determined in this assay by measuring lactate dehydrogenase (LDH), a method which is simple, accurate and reproducible. We conducted pilot studies to test if poly-lysine-coated plates would be suitable as a matrix upon which to plate fetal neurons, compared to astrocyte-coated plates. We also compared the use of growth medium to neurobasal medium supplemented with B27 in the pilot experiments. The concentrations of NMDA (300-500 μM), glycine (10-50 μM), and memantine (10-100 μM) were varied, and optimum concentrations and times determined from these pilot studies were then chosen for the main study. The assay is described below.
Fetal rat neocortical cells were cultured on a mouse astroglial feeder layer. To obtain mouse astroglial cells for the feeder layer, cortices were harvested from 1-day old Swiss Webster mice (Charles River, Hollister, Calif.) according to the procedure described by Rose et al (1993). After dissecting cortices in ice-cold dissecting medium, they were minced and incubated in 0.09% trypsin in media stock for 1 hr, followed by resuspension in growth medium containing 10% equine serum and 10% fetal bovine serum. A single-cell suspension was obtained by triturating through fire-bored glass pipettes, and the resulting cell suspension was plated at a density of 0.5-0.75 hemispheres/24-well plate/9.6 ml, with 0.4 ml/well. Plates were incubated in a humidified incubator at 37° C., 5% CO2. Astroglial cells become confluent in about 2-3 weeks, at which time these cultures are ready to be used as feeder layers upon which neuronal cultures can be plated. Neuronal cells were obtained from gestational Sprague-Dawley rats E16-E18, using a similar dissection procedure. Rat embryos were dissected to obtain cortical tissue, which was plated as a single-cell suspension at a density of 1.4 hemispheres/24-well plate/9.6 ml, with 0.4 ml/well. These cells were plated on the existing astroglial feeder layer, and were incubated at 37° C., 5% CO2. After 5 days in culture, cytosine arabinoside (10 μM) was added to the wells to inhibit glial cell proliferation, and after 24 hours, the medium was replaced with fresh growth medium. Cells were fed with fresh growth medium every 2 days, until the experiments were performed. For coating plates with poly-lysine, we used poly-d-lysine hydrobromide (Sigma Cat # P7280) at a concentration of 0.1 mg/ml to coat each well using a minimum volume of 0.2 ml/well. After coating for 5 minutes, the solution was aspirated and wells were rinsed thoroughly with sterile tissue culture grade water. After drying for 2 hours, plates were ready for use. Neuronal cultures were plated onto poly-lysine-coated plates at the same density as above. For the pilot study, some of the cultures were fed with 1:1 ratio of growth medium: neurobasal medium (GIBCO)+B-27 supplement (2%), while the rest of the cultures were fed with growth medium alone (Losi et al., 2006). For the main study, we used astroglial feeder layers to plate the neuronal cultures, and used a mix (1:1) of growth medium with neurobasal medium+B-27 supplement for feeding the cultures.
After 11-14 days in culture, neuronal cells were confluent and experiments were performed. Cells were washed twice using sterile Locke's buffer (154 mM NaCl, 5.6 mM KCl, 2.3 mM CaCl2, 3.6 mM NaHCO3, 5.5 mM D-glucose, 5 mM HEPES, pH 7.4), and then exposed to the various treatment compounds. […] After 15 minutes, cultures were washed twice and incubated overnight in media stock. After 24 hours, supernatants and lysates were collected to measure LDH activity. LDH activity was measured by the reduction of NAD, which was utilized in the stoichiometric conversion of a tetrazolium dye using a kit (Sigma TOX-7). Supernatants were removed from the wells and centrifuged before LDH measurements. The adherent cells were lysed to obtain total LDH. […]

NMDA receptor [2] = test: [3H]MK-801 binding assay, NMDA receptors in guinea pig brain membranes; conditions: for Relative affinity: compared to that of Memantine
Protocol: Hartley guinea pigs were sacrificed, and their brains were quickly removed and weighed. The brains then were homogenized in 50 mM Tris HCl buffer, pH 7.7, using a Polytron homogenizer. The homogenate was centrifuged at 40,000×g for 15 min, rehomogenized, and centrifuged again. The final pellet was resuspended in Tris-HCl, pH 7.7, at a final concentration of 6.67 mg original wet weight of tissue/ml. […] The samples were then filtered through glass fiber filters on a Tomtec cell harvester. The filters were washed 3 times with 3 ml of cold buffer. Filters were dried overnight and counted next day on a Wallac Betaplate Reader.
The binding experiments were conducted as follows. […] For each compound, graphs were prepared containing individual competition curves obtained for that compound. IC50 values and Hill coefficients were calculated using the program Prism. Ki values were calculated using the Chang Prusoff transformation: Ki=IC50/(1+L/Kd)
where L is radioligand concentration and Kd is the binding affinity of the radioligand, as determined previously by saturation analysis. […] In each experiment, one standard compound was simultaneously run on each 96 well plate.

NMDA receptor [3] = test: Whole-cell voltage-clamp recordings of NMDA evoked currents in hypocretin neurons (hypothalamic slices); format: cell-based, mouse; conditions: bath application, -60 mV, mean±SEM
[4] = Rattus norvegicus, Primary neuron
[5] = guinea pig brain membrane preparation (Table 29), read-out: Ki
[6] = NMDA 300 μM + 10 μM glycine, astrocyte-coated rat neurons, GM/NB + B-27 fed, 21 hour incubation
[7] = NMDA 300 μM + 10 μM glycine, poly-lysine-coated rat neurons, GM/NB + B-27 fed, 40 hour incubation
[8] = NMDA 300 uM + 50 uM glycine, astrocyte-coated rat neurons, GM/NB + B-27 fed, 24 hour incubation
[9] = NMDA 300 uM + glycine 50 uM, Plate #4, poly-lysine-coated rat neurons, GM/NB + B-27 fed, 24 hour incubation
[10] = NMDA 300 uM + glycine 50 uM, Plate #5, astrocyte-coated rat neurons, GM fed, 24 hour incubation
[11] = NMDA 300 μM - 21 hr, astrocyte-coated rat neurons, GM/NB + B-27 fed, 21 hour incubation
[12] = NMDA 300 uM - 40 hr, poly-lysine-coated rat neurons, GM/NB + B-27 fed, 40 hour incubation
[13] = NMDA 500 μM + 10 μM glycine, astrocyte-coated rat neurons, GM/NB + B-27 fed, 21 hour incubation
[14] = NMDA 500 uM + 10 uM glycine, poly-lysine-coated rat neurons, GM/NB + B-27 fed, 40 hour incubation
[15] = NMDA 500 μM - 21 hr, astrocyte-coated rat neurons, GM/NB + B-27 fed, 21 hour incubation
[16] = NMDA 500 uM - 40 hr, poly-lysine-coated rat neurons, GM/NB + B-27 fed, 40 hour incubation

With 2-aminotriamantane [MDT-50] the EC50 [1] was 107 ± 88.3 µM, the Ki (NMDA receptor [2]; [3H]MK-801 (1 nM), guinea pig brain membrane preparation, read-out: Ki (binding affinity)) was 19.1 µM and the Relative affinity (NMDA receptor [2]) was 0.038.
CC12CC3CC4C5CC(N)(CC41)CC2C5C3 [MDT-24, 1-methyl-4-aminodiamantane] showed an EC50 [1, 4] of 34.3 ± 11.3 µM, a Relative affinity (NMDA receptor [2]) of 0.045 and a Ki (NMDA receptor [2]; [5]) of 13.4 ± 5.1 µM.
CC12CC3C4CC5(C)CC3C(C1)C(N)(C5)C4C2 [MDT-51, 4,9-dimethyl-1-aminodiamantane] was tested, and the EC50 [1, 4] was 15.7 ± 9.1 µM, the Relative affinity (NMDA receptor [2]) was 0.155 and the Ki (NMDA receptor [2]; [5]) was 4.7 ± 2.4 µM.
CC12CC3(N)CC4C1CC1CC2C(N)(C3)C4(C)C1 (centres unmarked) [MDT-9, 1,6-dimethyl-2,4-diaminodiamantane] was tested, and the “inhibition of the peak amplitude of NMDA evoked currents” value (“inhibition” below) (NMDA receptor [3]; 10 μM) was 13.2±9%, the “inhibition” value (NMDA receptor [3]; 100 μM) was 15.2±4.8% and the Relative affinity (NMDA receptor [2]) was 0.032. It also gave a Ki (NMDA receptor [2]; [5]) of 22.5 ± 0.9 µM.
For CN[C@H](CC(=O)O)C(=O)O [NMDA], the “% (Control Wash = 100)” value [1, 6] was 144%, the “Secreted LDH (Avg)” value [1, 6] was 0.44 and the “Secreted/(total + secreted) (Avg)” value [1, 6] was 11.95. The “Total LDH (Avg)” value [1, 6] was 3.25, the “% (Control Wash = 100)” value [1, 7] was 116% and the “Secreted LDH (Avg)” value [1, 7] was 0.39. For the same molecule, the “Secreted/(total + secreted) (Avg)” value [1, 7] was 13.33, the “Total LDH (Avg)” value [1, 7] was 2.56 and the “% (Control Wash = 100)” value [1, 8] was 271%. The “Secreted LDH (Avg)” value [1, 8] was 0.76, the “Secreted/(total + secreted) (Avg)” value [1, 8] was 19.61 and the “Total LDH (Avg)” value [1, 8] was 3.10. For the same molecule, the “% (Control Wash = 100)” value [1, 9] was 163%, the “Secreted LDH (Avg)” value [1, 9] was 0.69 and the “Secreted/(total + secreted) (Avg)” value [1, 9] was 17.79. For the same molecule, the “Total LDH (Avg)” value [1, 9] was 3.19, the “% (Control Wash = 100)” value [1, 10] was 109% and the “Secreted LDH (Avg)” value [1, 10] was 0.20. For the same molecule, the “Secreted/(total + secreted) (Avg)” value [1, 10] was 6.37, the “Total LDH (Avg)” value [1, 10] was 2.90 and the “% (Control Wash = 100)” value [1, 11] was 166%. The “Secreted LDH (Avg)” value [1, 11] was 0.52, the “Secreted/(total + secreted) (Avg)” value [1, 11] was 13.82 and the “Total LDH (Avg)” value [1, 11] was 3.22. For the same molecule, the “% (Control Wash = 100)” value [1, 12] was 127%, the “Secreted LDH (Avg)” value [1, 12] was 0.45 and the “Secreted/(total + secreted) (Avg)” value [1, 12] was 14.55. The “Total LDH (Avg)” value [1, 12] was 2.61, the “% (Control Wash = 100)” value [1, 13] was 139% and the “Secreted LDH (Avg)” value [1, 13] was 0.51. For the same molecule, the “Secreted/(total + secreted) (Avg)” value [1, 13] was 11.56, the “Total LDH (Avg)” value [1, 13] was 3.91 and the “% (Control Wash = 100)” value [1, 14] was 114%. For the same molecule, the “Secreted LDH (Avg)” value [1, 14] was 0.44, the “Secreted/(total + secreted) (Avg)” value [1, 14] was 13.07 and the “Total LDH (Avg)” value [1, 14] was 2.92. For the same molecule, the “% (Control Wash = 100)” value [1, 15] was 147%, the “Secreted LDH (Avg)” value [1, 15] was 0.51 and the “Secreted/(total + secreted) (Avg)” value [1, 15] was 12.23. For the same molecule, the “Total LDH (Avg)” value [1, 15] was 3.65, the “% (Control Wash = 100)” value [1, 16] was 125% and the “Secreted LDH (Avg)” value [1, 16] was 0.48. For the same molecule, the “Secreted/(total + secreted) (Avg)” value [1, 16] was 14.35, the “Total LDH (Avg)” value [1, 16] was 2.91 and the Ki (NMDA receptor [2]; standard compounds at the NMDA site (Table 27), read-out: Ki) was 596 µM.
For NC12CC3C4CC5CC3C(C1)C(C5)C4C2 [MDT-3], the “inhibition” value (NMDA receptor [3]; 10 μM) was “did not produce inhibition”, the “inhibition” value (NMDA receptor [3]; 100 μM) was “did not produce inhibition” and the Relative affinity (NMDA receptor [2]) was 0.021. The Ki (NMDA receptor [2]; [5]) was 34.6 ± 3.7 µM.
